Holding throughout (experiment): DTP human tumour cell line panel, 48 h
The test system of assay [1] is MDA-MB-231.
In assay [2] the test system is SF-268.
Assay [3] deals with NCI-H460.
For assay [4], the system named is NCI-H226.
Assay [5] relates to SR.
Assay [6] has as its system DU-145.
Assay [7] relates to TK-10.
Assay [8] has as its system HCC 2998.
Assay [9] relates to HCT-15.
In assay [10] the test system is EKVX.
Assay [11] concerns SNB-19.
The test system of assay [12] is SK-MEL-28.
Assay [13] concerns OVCAR-3.
The subject of assay [14] is MCF7.
Assay [15] deals with RPMI-8226.
Assay [16] relates to A549.
The test system of assay [17] is MOLT-4.
Assay [18] deals with SF-295.
Assay [19] relates to CCRF-CEM.

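Method: 48-hour compound exposure of cells in 96-well plates, five concentrations, linear interpolation of endpoints. At the GI50, growth is halved.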 Activity calls are given as the source filed them. Rule as the data show it: active = GI50 up to about 1.1 µM and inactive = higher. Where only a bound is given, the exact number is not on record here.

Broadly, the GI50 is the concentration that inhibits growth by half.

As to `O=C(O)CCC(/N=C(\C(=N\C(CCC(=O)O)C(=O)O)c1ccccc1)c1ccccc1)C(=O)O` (configuration not stated), the GI50 in assay [1], in [2], in assay [3], in assay [4], in assay [5] and in assay [6] was > 100 µM (inactive) throughout. Further, the GI50 is > 100 µM (inactive) in assay [7]; > 100 µM (inactive) in assay [8]; over 100 µM in [9]; > 100 µM (inactive) in [10]; > 100 µM (inactive) in [11]; > 100 µM (inactive) in assay [12]. The GI50 in [13], in assay [14], in assay [15], in assay [16], in [17] and in [18] was > 100 µM (inactive) each time.
As for `CCNC(=S)N/N=C/c1cc([N+](=O)[O-])ccc1O`, the GI50 in assay [1] was 33 µM (inactive); in [2], 24.3 µM (inactive); in [3], 9.27 µM (inactive); in assay [4], 27.9 µM (inactive); in assay [19] it was 4.47 µM (inactive); in [5], 10.9 µM (inactive). Also, the GI50 was 83.4 µM (inactive) in assay [6]; 16.2 µM (inactive) in assay [7]; 16.2 µM (inactive) in assay [8]; 11.6 µM in assay [9]; 30.4 µM (inactive) in [10]; 34.1 µM (inactive) in [11]. Further, the GI50 is 51.8 µM (inactive) in assay [12]; 0.307 µM (active) in assay [14]; 33.4 µM (inactive) in [16]; 8.73 µM (inactive) in assay [17]; 35.6 µM (inactive) in assay [18].
`Cn1c(=O)c2c(nc(N3CCOCC3)n2CCCNCC(O)c2ccc(O)c(O)c2)n(C)c1=O` (configuration not stated): the GI50 is 0.0262 µM (active) in assay [1]; > 100 µM (inactive) in assay [2]; > 100 µM (inactive) in assay [3]; > 100 µM (inactive) in assay [4]; > 100 µM (inactive) in [19]; 10 µM (inactive) in assay [5]. Further, the GI50 in [6] is > 100 µM (inactive); in assay [7], > 100 µM (inactive); in [9] it was over 100 µM; in assay [10], > 100 µM (inactive); in assay [11] it was > 100 µM (inactive); in assay [12], > 100 µM (inactive). For the same compound, the GI50 in [13] is > 100 µM (inactive); in assay [14], > 100 µM (inactive); in assay [15] it was > 100 µM (inactive); in assay [16] it was > 100 µM (inactive); in [17] it was 20.8 µM (inactive); in assay [18], > 100 µM (inactive).
In the case of `NC(CCCCNC(=O)CNC(=O)OCc1ccccc1)C(=O)NC(CCCCNC(=O)CNC(=O)OCc1ccccc1)C(=O)NC(CCCCNC(=O)CNC(=O)OCc1ccccc1)C(=O)NC(CCCCNC(=O)CNC(=O)OCc1ccccc1)C(=O)NC(CCCCNC(=O)CNC(=O)OCc1ccccc1)C(=O)NC(CCCCNC(=O)CNC(=O)OCc1ccccc1)C(=O)O` (configuration not stated), the GI50 in assay [1], in assay [2], in [3], in [4], in assay [19] and in assay [5] was > 75 µM (inactive) throughout. The GI50 is > 75 µM (inactive) in assay [6]; > 75 µM (inactive) in assay [7]; > 75 µM (inactive) in assay [8]; over 75 µM in assay [9]; > 75 µM (inactive) in [11]; > 75 µM (inactive) in assay [12]. Besides, the GI50 in assay [13], in assay [14], in assay [15], in assay [16] and in assay [17] was > 75 µM (inactive) throughout.
Regarding `CCc1oc2ccccc2c1C(=O)c1cc(Br)c(O)c(Br)c1` [BENZBROMARONE], the GI50 in assay [1] is 20.5 µM (inactive); in assay [2], 28.1 µM (inactive); in assay [3], 18.4 µM (inactive); in assay [4] it was 22.1 µM (inactive); in assay [19] it was 26.4 µM (inactive); in assay [5] it was 23.5 µM (inactive). In addition, the GI50 in assay [6] was 43.3 µM (inactive); in assay [7] it was 24.7 µM (inactive); in assay [9], 27.6 µM; in assay [10], 30.7 µM (inactive); in [11], 36.1 µM (inactive); in assay [12] it was 41.4 µM (inactive). The GI50 was 18.2 µM (inactive) in [13]; 23.7 µM (inactive) in assay [14]; 29 µM (inactive) in assay [15]; 34.8 µM (inactive) in assay [16]; 26.9 µM (inactive) in assay [17]; 31.8 µM (inactive) in assay [18].
As for `COc1cc2c(cc1OC)C1CCc3ccccc3CN1CC2` (configuration not stated), the GI50 in assay [1], in [2], in assay [3], in assay [4], in [19] and in assay [5] was > 100 µM (inactive) each time. Further, the GI50 in assay [6] was > 100 µM (inactive); in assay [7], > 100 µM (inactive); in assay [8] it was > 100 µM (inactive); in assay [9], over 100 µM; in assay [10] it was > 100 µM (inactive); in [11] it was > 100 µM (inactive). Also, the GI50 in assay [12], in [13], in [14], in assay [16], in assay [17] and in assay [18] was > 100 µM (inactive) each time.
As for `Cc1cc(-c2nc3ccc(F)cc3s2)ccc1N`, the GI50 was > 100 µM (inactive) in [1]; > 100 µM (inactive) in assay [2]; 59.8 µM (inactive) in [4]; 9.46 µM (inactive) in assay [19]; > 100 µM (inactive) in [5]; > 100 µM (inactive) in [6]. In addition, the concentration for 50% growth inhibition (GI50) was < 0.01 µM (active) in [7]; 38.9 µM (inactive) in assay [8]; over 100 µM in assay [9]; 56.5 µM (inactive) in assay [10]; > 100 µM (inactive) in assay [11]; > 100 µM (inactive) in [12]. For the same compound, the GI50 is > 100 µM (inactive) in assay [13]; < 0.01 µM (active) in [14]; 5.6 µM (inactive) in assay [15]; 42.5 µM (inactive) in assay [16]; > 100 µM (inactive) in assay [17]; > 100 µM (inactive) in [18].
With `O=[N+]([O-])c1ccc(OP(=O)(O)OCC2OC(CP(=O)(O)O)C(O)C2O)cc1` (configuration not stated), the GI50 in assay [1], in assay [2], in assay [3], in assay [19], in [5] and in assay [6] was > 100 µM (inactive) in each case. The GI50 in assay [7] was > 100 µM (inactive); in assay [8], > 100 µM (inactive); in assay [9] it was over 100 µM; in assay [10], > 100 µM (inactive); in assay [11] it was > 100 µM (inactive); in assay [12] it was > 100 µM (inactive). For the same compound, the GI50 in assay [13], in [14], in [16], in assay [17] and in [18] was > 100 µM (inactive) throughout.
Regarding `O=C(NNC(=S)Nc1ccccc1)c1csc(NC(=S)NC2CCCCC2)n1`, the GI50 in assay [1] is 46.3 µM (inactive); in [2], 99.3 µM (inactive); in assay [4], 9.59 µM (inactive); in assay [19] it was 54.8 µM (inactive); in assay [5], 49.5 µM (inactive); in [6], > 100 µM (inactive). In addition, the GI50 in [7] was > 100 µM (inactive); in assay [8], 10.5 µM (inactive); in [9], 33.3 µM; in assay [10], 20.1 µM (inactive); in [13], 87.5 µM (inactive); in assay [14], 64.9 µM (inactive). In addition, the GI50 was 28.8 µM (inactive) in [15], > 100 µM (inactive) in [16], 25.6 µM (inactive) in [17] and > 100 µM (inactive) in assay [18].
Take `O=C(c1cccs1)N(C(=S)OC12CC3CC(CC(C3)C1)C2)c1ccccc1`: the GI50 in assay [1] is 30 µM (inactive); in assay [2], 37.6 µM (inactive); in [3] it was 33.3 µM (inactive); in [4], 33.3 µM (inactive); in assay [19], 15.3 µM (inactive); in assay [5], 25.2 µM (inactive). In addition, the GI50 in [6] was 84.7 µM (inactive); in [7], 44 µM (inactive); in assay [8], 32.6 µM (inactive); in [9], 29.8 µM; in [10], 17.8 µM (inactive); in [11], 33.7 µM (inactive). Besides, the GI50 in assay [12] was 54.8 µM (inactive); in assay [13], 34.6 µM (inactive); in assay [14], 30.7 µM (inactive); in assay [16], 32.8 µM (inactive); in assay [17] it was 26.1 µM (inactive); in [18], 27.9 µM (inactive).
For `O=C(CCCn1ccnc1[N+](=O)[O-])NCCn1ccnc1`, the GI50 in assay [1], in assay [2], in [3], in [4], in [19] and in assay [5] was > 100 µM (inactive) each time. The GI50 in [6] was > 100 µM (inactive); in [7], > 100 µM (inactive); in assay [8], > 100 µM (inactive); in [9] it was over 100 µM; in assay [11], > 100 µM (inactive); in [12], > 100 µM (inactive). Moreover, the GI50 in assay [13], in assay [14], in assay [16], in [17] and in assay [18] was > 100 µM (inactive) in each case.

The values above are taken from ChEMBL document CHEMBL1201862, “PubChem BioAssay data set” (2004).
